The test system of one data set is Wnt signaling pathways. In words: Skin excretion of IEVs under Wnt agonist or inhibitor (Western Blot, immunofluorescence). The following applies: Licl 10 mg/kg or XAV939 1 mg/kg intraperitoneally for 3 days, FIGS. 13A-B. It is filed as in vivo. For orientation: A western blot detects proteins with antibodies after separation by electrophoresis.
Data set [1] deals with mice. As to the kind of experiment: Wound healing of 1 cm×1 cm full-thickness wound. It is filed as in vivo. Particulars: for effect on promotion of wound healing by IEVs: with IEVs, FIG. 15B.
Excerpt: A 1 cm×1 cm full-thickness wound was made in mice, and the effect of systemic injections of MSCs and IEVs on wound healing was examined.
Data set [2] deals with skin mesenchymal stem cells. As to the kind of experiment: Uptake of IEVs by skin mesenchymal stem cells, cell smear. The following applies: FIG. 13D. It counts as cell-based.
Another data set has as its system active-β-catenin. As to the kind of experiment: Active-β-catenin intensity in the skin, immunofluorescence. It is filed as in vivo. The following applies: with IEVs, FIG. 13E.
Data set [3] relates to mice. In words: Hair regrowth with IEVs alone or combined with anti-aging substances. Particulars: combined with IEVs, FIG. 12. It is filed as in vivo. The procedure: After systemic injection of PKH26-IEV in C57 mice, rapamycin (5 mg/kg), metformin (100 mg/kg), dadatinib (5 mg/kg) and resveratrol (10 mg/kg) were intraperitoneally injected for 7 days, respectively.

As for `[Cl-].[Li+]` [Licl], the “effect on skin excretion of IEVs” value with Wnt signaling pathways was “significant increase in skin excretion of IEVs”. Also, in the data set on mice [1] (immunofluorescence, FIG. 15C), the “IEVs accumulation in the wound site” value is given as “significantly increased IEVs accumulation in the wound site”. Further, in the data set on mice [1], the “effect on promotion of wound healing by IEVs” value was “accelerated the promotion of wound healing by IEVs”. In addition, in data set [2], the “effect on uptake of IEVs by skin mesenchymal stem cells” value was “affected”.
Consider `Oc1nc(-c2ccc(C(F)(F)F)cc2)nc2c1CSCC2` [XAV939], for which the “effect on IEV-stimulated activation of Wnt signaling pathways in the skin” value in the data set on active-β-catenin is reported as “attenuated this activation process”. The “effect on promotion of wound healing by IEVs” value with mice [1] is reported as “significantly attenuated the promotion of wound healing by IEVs”. For the same compound, the “effect on uptake of IEVs by skin mesenchymal stem cells” value in data set [2] is reported as “affected”.
On to `CN(C)C(=N)N=C(N)N` [metformin], for which, in the data set on mice [3], the “effect of the combination on hair regrowth promotion by IEVs” value is given as “promoted the promotion effects of hair regrowth by IEVs”.
Still for that read-out and setting: the value for `Oc1ccc(C=Cc2cc(O)cc(O)c2)cc1` [resveratrol] was “promoted the promotion effects of hair regrowth by IEVs”.

Values taken from patent US12427168B2, “Extracellular vesicle and use thereof in skin products” (EV CELL BIOTECH (GUANGZHOU) CO., LTD., priority 2020, dated 2025).
